Data reported in US20250122164A1, “N,N-[…] ANALOGS FOR TREATING BRAIN DISORDERS” (The Regents of the University of California, priority 2021, published 2025).
Entries after “also recorded” stand apart in the source; their conditions may differ.

Legend:
[1] = patients, SR-MDMA paired psychotherapy; 25% in placebo group; cited from earlier work
SERT [2] = molecular target: T1, SERT (Homo sapiens, UniProt P31645); details: other studies; cited from earlier work
T1 construct: host or cells: HEK293T cells, transient transfection with Lipofectamine 3000

rat cortical neurons [3] = assay: Dendritogenesis (Sholl analysis) in cultured cortical neurons; type: cell-based; details: for dendritic complexity (Sholl analysis, Nmax): DIV 6 rat cortical cultures, 72-hours treatment, 10 uM and 100 nM, vs VEH; for dendritogenesis effect after ketanserin pretreatment: KTSN added 30 minutes before, 10-fold excess, DIV 6, 72-hours; for dendritic arbor complexity (Sholl analysis): increasing concentrations, efficacy in the nanomolar range
Procedure: For the dendritogenesis experiments conducted using cultured cortical neurons, E18 timed pregnant Sprague Dawley rats were obtained from Charles River Laboratories. Full culturing, staining and analysis experiments were performed as previously described with the exception that there was no media change during treatments. Dendrites were visualized using a chicken anti-MAP2 antibody (1:10,000; EnCor, CPCA-MAP2) as previously reported. DMSO and ketamine […] were used as vehicle and positive controls, respectively. For blocking experiments, ketanserin was added 30-minutes prior to addition of agonists in 10-fold excess.
(§1) Statistical Analysis. Appropriate samples sizes were estimated based on our previous experiences performing similar experiments. Treatments were randomized, and data were analyzed by experimenters blinded to treatment conditions. All comparisons were planned prior to performing each experiment. Statistical analyses were performed using GraphPad Prism (v.8.1.2). Data are represented as mean±s.e.m., unless otherwise noted, with asterisks indicating *P<0.05, **P<0.01, ***P<0.001 and ****P<0.0001.

[4] = Cued fear conditioning / fear extinction; type: in vivo, mice; details: for fear extinction test curve vs vehicle: 12.5 and 25 mg/kg curves; for freezing during extinction training (day 2): 12.5 and 25 mg/kg i.p. 30-min before extinction training; for conditioned freezing on extinction testing day (24-hours later, drug-free): treatment i.p. 30-min before extinction training on day 2, 16 CS tones
Text: Mice were exposed to cued fear conditioning on day 1, fear extinction training on day 2 and extinction testing on Day 3. Mice were habituated to handling for 3 days before experimentation. On the day of the experiment mice were allowed to habituate to the behavior room for 1-hour before beginning the experiment. 15-minutes before starting the experiment, mice were separated out into individual holding cages.
Cued fear conditioning consisted of six pairings of a CS auditory cue (80-85 dB white noise, 15 s) and a co-terminating US footshock (0.85 mA and 2 s), each spaced 1.5 minutes apart. The fear conditioning apparatus (Med Associates model #MED-VFC2-SCT-R) consisted of a 30.5 cm×24.1 cm×21 cm internal soundproof chamber, with metal grated floors, an infrared camera, a sound generator, and a light source. Mice were initially placed in the conditioning apparatus and the first 1.5 minutes were stimulus free. After the last shock, the animals remained in the chambers for an additional 2 min before being returned to their home cages. […] Freezing responses for fear conditioning (day 1) are presented as the percentage of time spent freezing during the last 1.5 minutes after the last shock. The apparatus was cleaned with 70% EtOH in between trials.
Cued fear memory was assessed by exposing the animals to a novel context (lights off, A-frame insert, smooth plastic floor insert, additional vanilla odor) for 2 min prior to 16 presentations of auditory cues (80 dB white noise, 15 s) spaced 15 s apart. Freezing responses for cue testing (day 2 and 3) are presented as the percentage of time spent freezing during the tone presentations. The procedure was repeated on day 3 in the absence of drug.
Fear conditioning experiments were performed between the hours of 08:00-11:00. Freezing behavior was scored using Med Associates Video Freeze software v2.25 (motion threshold=100 au, detection method=linear, minimum freeze duration=15 frames, which is equal to a 0.5 s freeze). The apparatus was cleaned with 70% EtOH in between trials on day 1 and Sani-cloth gemicidal disposable cloths (PDI, Q89072) were used to clean the apparatus on days 2 and 3.

[5] = Novelty induced locomotion (NIL) test; type: in vivo, mice; details: for locomotion at the lower doses: 12.5 mg/kg and 25 mg/kg; for locomotion at highest dose: 50 mg/kg i.p., vs vehicle; for locomotion (total distance) in novel arena, dose dependence / time spent in the center of the arena: 12.5, 25, 50 mg/kg i.p., 30-minutes
Procedure: (§2) The head-twitch response assay was performed as described previously using both male and female C57BL/6J mice (3 each per treatment). The mice were obtained from Jackson Laboratory and were approximately 9 weeks old at the time of the experiments. Before injecting the mice, their baseline temperature was measured using an IR thermometer as described. Compounds were administered via intraperitoneal (i.p.) injection (5 ml kg-1) using 0.9% saline as the vehicle. Immediately after the animals were placed in an arena for 30-minutes where their locomotor activity was assessed using AnyMaze automated tracking software. The behavior was also videotaped and later scored by two blind overserves for head-twitch responses, the results were averaged. Upon completion of the novelty induced locomotion assay their temperature was measured at the 30-minute mark. The mice were then transferred to a holding cage with their other treatment matched cage mates and their temperature was measured at the 90 and 120-minute mark.

SERT [6] = molecular target: T1, SERT; assay: SERT efflux: [3H]5-HT release from SERT expressing HEK293T cells; type: cell-based; details: HEK293T cells transiently expressing SERT, 10 pM-100 uM
Procedure: HEK293T cells were grown in Dulbecco's Modified Eagle Media (DMEM) supplemented with 10% fetal bovine serum (FBS) and 1% penicillin-streptomycin. 24 hours prior to the experiment, cells were plated in 24-well plates at a density of 150,000 cells/well and concurrently transfected using Lipofectamine 3000 according to the manufacturer's protocol. Cells were transfected with hSERT-N1-pEYFP (Addgene #70105) or a GFP control plasmid (Lonza pmaxGFP vector). The next day the wells were washed (1×500 μL) with 1× Hank's Balanced Salt Solution supplemented with 2 mM MgCl2 and 2 mM CaCl2 (HBSS) and the plate was placed on a 37° C. water bath for the remainder of the experiment. 250 μL of HBSS containing 10 nM 5-[1,2-3H[N]]-hydroxytryptamine creatinine sulfate (NET498001MC, Lot: 2902700) was added to the wells and incubated for 15 minutes, allowing uptake into SERT expressing HEK cells. Uptake was terminated by aspiration of wells followed by washes (3×500 μL) with HBSS. […] 200 μL of media was collected from each well and placed into a scintillation vial containing 1 mL PerkinElmer Ultima Gold™ scintillation cocktail to serve as the efflux fraction. […] Radioactivity in the form of disintegrations per minute (DPM) was determined the following day with the use of a Beckman LS 6000 liquid scintillation counter. […] The GFP control cells were checked to ensure radioactivity was below background levels.

Tail suspension test = type: in vivo, mice; details: i.p. injection, tested after 24 h, vs vehicle
Procedure: Male C57/BL6J mice (9-10 weeks of age at time of experiment) were obtained from the Jackson Lab and housed in a UCD vivarium. […] All experiments were carried out by the same experimenter who performed the handling. Twenty-four hours after treatments, animals were subjected to a tail suspension test. Animals were suspended from their tails approximately 16 cm from the top of the apparatus and 25 cm from the bottom of the apparatus. Behavior was video recorded for 6 min and analyzed later by an experimenter blinded to treatment conditions. Immobility was defined as the amount of time spent not struggling or attempting to generate momentum and was scored for the entire 6 min period. All TST sessions were performed between the hours of 08:00 and 13:00.

rat cortical neurons [7] = assay: Spinogenesis (dendritic spine density) in mature cortical cultures; type: cell-based; details: for dendritic spine density: DIV 15 rat cortical neurons, 24-hours treatment; for spinogenesis effect after ketanserin pretreatment: KTSN 30-minute pretreatment, 10-fold excess, DIV 15, 24-hours
Procedure: Spinogenesis experiments were performed as previously described with the exception that cells were treated at DIV14 instead of DIV18 and then fixed on DIV15. The images were taken on a Nikon HCA Confocal microscope a with a 100x/NA 1.45 oil objective. DMSO and ketamine […] were used as vehicle and positive controls, respectively. For blocking experiments, ketanserin was added 30-minutes prior to addition of agonists in 10-fold excess.
as §1

[8] = Head-twitch response (HTR) assay; type: in vivo, mice; details: first 20-minutes in novel arena; 12.5, 25, 50 mg/kg i.p.
Procedure: as §2

5-HT2A biosensor = assay: psychLight 5-HT2A biosensor in cultured cortical neurons; type: cell-based; details: DIV 10-14 rat cortical neurons, 10 uM, vs vehicle
Procedure: E18 rat cortical neurons were plated at 60,000 cells/well in glass 96-well plates (P96-1.5H-N, Cellvis) coated with poly-D-lysine (Sigma, P6407-5MG). At day in vitro (DIV) 3-7 neurons were infected with AAV9_hSynapsin_psychLight2 (Neurophotonics-Viral Vector Core) or AAV9-hsyn-GRAB_5-HT1.0 (Addgene, 140552-AAV9) at an MOI of 70,000. Neurons were kept in the incubator for one week to allow for viral expression. On imaging day (DIV 10-14), media was aspirated and wells were washed (1×200 μL) with HBSS supplemented with 2 mM MgCl2 and 2 mM CaCl2. 50 μL HBSS was added to the wells of the assay plate and then imaged on a CellInsight CX7 HCA Platform (Thermo Fisher, CX7A1110) configured with a onstage incubator for live cell imaging (Thermo Fisher, NX7LIVE001) at 40×(N.A.=0.60) with 25 regions of interest (ROI) taken per well using an arbitrary ROI pattern for each well with no bias to location and no overlap of the ROIs (exposure=400 ms, LED power=100%). […]
Images were then analyzed using ImageJ by selecting ROIs surrounding individual neuronal cell bodies of the post-treatment images and recording the mean fluorescence, the same ROIs were applied to the pretreatment images to record the mean fluorescence. The […] values were calculated as previously reported.

[9] = Body temperature assay (IR thermometer); type: in vivo, mice; details: for increase in body temperature (hyperthermia): 12.5, 25, 50 mg/kg i.p., measured for 2-hours
Procedure: as §2

T1 sequence (P31645 whole entry): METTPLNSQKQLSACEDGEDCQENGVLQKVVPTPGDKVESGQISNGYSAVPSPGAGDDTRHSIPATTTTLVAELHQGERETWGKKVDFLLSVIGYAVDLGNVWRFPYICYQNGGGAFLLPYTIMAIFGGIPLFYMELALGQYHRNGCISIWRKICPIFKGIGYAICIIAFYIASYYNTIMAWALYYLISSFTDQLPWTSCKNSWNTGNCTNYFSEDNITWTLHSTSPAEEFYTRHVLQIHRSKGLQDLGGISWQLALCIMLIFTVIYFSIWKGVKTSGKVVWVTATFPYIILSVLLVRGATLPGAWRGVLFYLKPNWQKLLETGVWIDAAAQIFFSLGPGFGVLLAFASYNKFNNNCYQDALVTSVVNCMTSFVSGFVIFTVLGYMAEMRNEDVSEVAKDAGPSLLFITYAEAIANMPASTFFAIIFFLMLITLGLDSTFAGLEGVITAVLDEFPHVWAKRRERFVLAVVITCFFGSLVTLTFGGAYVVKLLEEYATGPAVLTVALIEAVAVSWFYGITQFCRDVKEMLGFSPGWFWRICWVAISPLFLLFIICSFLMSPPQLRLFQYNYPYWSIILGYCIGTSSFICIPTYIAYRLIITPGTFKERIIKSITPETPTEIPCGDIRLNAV

| Compound | dendritic complexity (Sholl analysis, Nmax) (rat cortical neurons [3]) | dendritogenesis effect after ketanserin pretreatment (rat cortical neurons [3]) | dendritic arbor complexity (Sholl analysis) (rat cortical neurons [3]) | fear extinction test curve vs vehicle [4] | freezing during extinction training (day 2) [4] | conditioned freezing on extinction testing day (24-hours later, drug-free) [4] | locomotion at the lower doses [5] | locomotion at highest dose [5] | locomotion (total distance) in novel arena, dose dependence [5] | time spent in the center of the arena [5] | dendritic spine density (rat cortical neurons [7]) | spinogenesis effect after ketanserin pretreatment (rat cortical neurons [7]) | head twitch response (hallucinogenic potential) [8] | psychlight 5-HT2A biosensor response (5-HT2A biosensor) | increase in body temperature (hyperthermia) [9] | also measured |
| --- | --- | --- | --- | --- | --- | --- | --- | --- | --- | --- | --- | --- | --- | --- | --- | --- |
| CNC(C)Cc1ccc2c(c1)OCO2 (racemic) [SR-MDMA, S,R(+/−)-3,4-methylenedioxymethamphetamine] |  |  |  |  |  |  |  |  |  |  |  |  |  |  |  | response rate in decreasing the symptoms of PTSD [1]: 83% |
| CC(Cc1ccc2c(c1)OCO2)N(C)C (racemic) [racemic version of LED] |  |  |  |  |  |  |  |  |  |  |  |  |  |  |  | 5-HT uptake inhibition and release (SERT [2]): moderate ability to inhibit uptake of 5-HT as well as promote its release |
| C[C@H](Cc1ccc2c(c1)OCO2)N(C)C [LED, (R)-1-(benzo[d][1,3]dioxol-5-yl)-N,N-dimethylpropan-2-amine] | increases in dendritic complexity | blocked by ketanserin | robustly increased dendritic arbor complexity | statistically lower than the vehicle control curve | neither dose influenced freezing during extinction training | the 12.5 mg/kg dose of LED resulted in reduced freezing on testing day | neither of them altered changes in locomotion or had psychostimulant properties | significant decrease in locomotion | dose dependent decrease in locomotion | only the highest doss caused a decrease in time spent in the center | increases dendritic spine density | KTSN blocks the spinogenesis effects | Neither compound elicited a significant HTR | Neither LED nor R-MDMA induced a significant response | Neither compound induced any increases in body temperature | promotion of plasticity (Sholl analysis), comparison of enantiomers and racemates (rat cortical neurons [3]; cultured cortical neurons, FIG. 5, listed as R-MDDMA): more effect at promoting plasticity than either the S-enantiomer or the racemic mixture; also recorded: more effective than racemic MDMA; fear extinction, females only ([4]; separated by sex, females): females display enhanced extinction with the 12.5 mg/kg dose; fear extinction, males only ([4]; separated by sex, males): males display enhanced extinction with the 25 mg/kg dose; [3H]5-HT release (efflux) (SERT [6]): failed to induce [^3H]5-HT release; antidepressant behavioral effect (tail suspension test immobility) (Tail suspension test): produces antidepressant behavioral effects; body temperature relative to vehicle ([9]; 50 mg/kg i.p., 30-minute time point): significant decrease in temperature |
| R-3,4-Methylenedioxy methamphetamine [R-MDMA, reference compound] | increases in dendritic complexity | blocked by ketanserin | robustly increased dendritic arbor complexity | statistically lower than vehicle control | decreased freezing during extinction training and testing | decreased freezing during extinction training and testing | neither of them altered changes in locomotion or had psychostimulant properties | exhibits psychostimulant effects | dose dependent increase in locomotion | all doses decreased time spent in the center | increases dendritic spine density, comparably to R-MDMA | KTSN blocks the spinogenesis effects | Neither compound elicited a significant HTR | Neither LED nor R-MDMA induced a significant response | Neither compound induced any increases in body temperature |  |
